19 molecules from patent US8580965B2, “Substituted sulfonamide compounds” (Gruenenthal GmbH, priority 2006, dated 2013) can be followed below.

Each structure is given as a SMILES string.

Assay [1] deals with T1, human B1R receptor (bradykinin 1 receptor) (Homo sapiens, UniProt P46663).
T1 construct: host or cells: CHO K1 cells (hB1R cells)
T1 sequence (P46663 1-353): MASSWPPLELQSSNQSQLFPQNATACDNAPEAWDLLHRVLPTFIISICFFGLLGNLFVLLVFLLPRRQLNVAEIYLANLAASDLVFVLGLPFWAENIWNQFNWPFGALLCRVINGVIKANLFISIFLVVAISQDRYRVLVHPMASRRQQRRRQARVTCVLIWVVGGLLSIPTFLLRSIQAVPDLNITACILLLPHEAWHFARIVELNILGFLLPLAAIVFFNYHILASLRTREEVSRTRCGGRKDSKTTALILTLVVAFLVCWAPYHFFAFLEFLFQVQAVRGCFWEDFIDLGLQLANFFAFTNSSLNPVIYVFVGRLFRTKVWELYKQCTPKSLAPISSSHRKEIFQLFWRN
As to the kind of experiment: FLIPR Ca2+ assay (Fluo-4) on CHO K1 cells stably transfected with the human B1R gene; % activation and % inhibition at 10 μM. The class given is cell-based. The settings on record: CHO-K1, test substance 10 μM; CHO K1 hB1R cells; Ca2+ inflow after 0.5 nM Lys-Des-Arg9-bradykinin; read-out: B1R antagonism, human [10 μM] % inhibition. In outline:
(§1)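 Fluo-4 Ca2+ flux on FLIPR in stable hB1R or rB1R CHO K1 lines, two additions. Agonism: 10 µM compound versus 0.5 nM Lys-Des-Arg9-BK (human) or 100 nM Des-Arg9-BK (rat); antagonism: same agonists applied 10 min later, suppression expressed against maximum achievable inhibition.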

Assay [2] has as its target T2, B1R receptor of the rat (bradykinin 1 receptor) (Rattus norvegicus, UniProt P97583).
T2 construct: host or cells: CHO K1 cells (rB1R cells)
T2 sequence (P97583 1-337): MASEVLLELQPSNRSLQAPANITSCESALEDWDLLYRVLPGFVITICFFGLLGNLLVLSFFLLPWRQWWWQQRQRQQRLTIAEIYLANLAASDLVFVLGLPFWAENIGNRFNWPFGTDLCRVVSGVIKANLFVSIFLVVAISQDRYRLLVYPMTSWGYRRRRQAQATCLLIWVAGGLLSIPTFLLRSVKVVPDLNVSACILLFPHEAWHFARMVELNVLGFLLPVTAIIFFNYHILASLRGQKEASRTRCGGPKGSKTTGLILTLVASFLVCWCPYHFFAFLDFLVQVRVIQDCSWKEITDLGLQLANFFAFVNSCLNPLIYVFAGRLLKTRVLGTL
As to the kind of experiment: FLIPR Ca2+ assay (Fluo-4) on CHO K1 cells stably transfected with the B1R gene of the rat; % activation and % inhibition at 10 μM. The class given is cell-based. The settings on record: CHO-K1, test substance 10 μM; CHO K1 rB1R cells; Ca2+ inflow after 100 nM Des-Arg9-bradykinin; read-out: B1R antagonism, rat [10 μM] % inhibition. In short, it runs like this: as §1

In the case of `COc1ccc(S(=O)(=O)N(C)CCOCC(=O)N2CCC(O)(c3ccccn3)CC2)cc1OC` [Example 41, N-{2-[2-(4′-hydroxy-3′,4′,5′,6′-tetrahydro-2′H-[2,4′]bipyridinyl-1′-yl)-2-oxo-ethoxy]-ethyl}-3,4-dimethoxy-N-methyl-phenylsulfonamide], the inhibition (commonly the change of the read-out against control, counted positive when it falls) at 10 µM in assay [1] was 1.29%; in assay [2], -6.31%.
In the case of `Cc1cc(S(=O)(=O)N(C)CCOCC(=O)N2CCC(O)(c3ccc(Br)cc3)CC2)c(C)s1` [Example 257, N-(2-(2-(4-(4-bromophenyl)-4-hydroxypiperidin-1-yl)-2-oxoethoxy)ethyl)-N,2,5-trimethylthiophene-3-sulfonamide], the inhibition at 10 µM came to 49.4% in assay [1] and 101% in assay [2].
For `COc1cc(C)c(S(=O)(=O)N(C)CCOCCC(=O)N2CCC(O)(Cc3ccccc3)CC2)c(C)c1` [Example 277, N-(2-(3-(4-benzyl-4-hydroxypiperidin-1-yl)-3-oxopropoxy)ethyl)-4-methoxy-N,2,6-trimethylphenylsulfonamide], the inhibition at 10 µM in assay [1] turned out to be 86.8%; in assay [2], 88.2%.
For `COc1cc(C)c(S(=O)(=O)N2CCC(COCC(=O)N3CCC(O)(c4cccc(C(F)(F)F)c4)CC3)C2)c(C)c1` (centres unmarked) [Example 231, 1-(4-hydroxy-4-(3-(trifluoromethyl)phenyl)piperidin-1-yl)-2-((1-(4-methoxy-2,6-dimethylphenylsulfonyl)pyrrolidin-3-yl)methoxy)ethanone] the same measures were 102% and 98.7%.
The matching figures for `O=C(COCC1Cc2ccccc2CN1S(=O)(=O)c1ccccc1)N1CCC(O)(c2ccccn2)CC1` (centres unmarked) [Example 73, 2-(2-phenylsulfonyl-1,2,3,4-tetrahydro-isoquinolin-3-ylmethoxy)-1-(4′-hydroxy-3′,4′,5′,6′-tetrahydro-2′H-[2,4′]bipyridinyl-1′-yl)-ethanone]: -7.27% and 14.4%.
With `O=C(COCC1CCCN1S(=O)(=O)c1cc(Cl)sc1Cl)N1CCC(O)(c2ccccc2)CC1` (centres unmarked) [Example 225, 2-((1-(2,5-dichlorothiophen-3-ylsulfonyl)pyrrolidin-2-yl)methoxy)-1-(4-hydroxy-4-phenylpiperidin-1-yl)ethanone], the inhibition at 10 µM worked out at 43.1% in assay [1] and 88.5% in assay [2].
Consider `COc1ccc(S(=O)(=O)N2CCCC2COCC(=O)N2CCC(O)(c3ccccn3)CC2)cc1` (centres unmarked) [Example 40, 1-(4′-hydroxy-3′,4′,5′,6′-tetrahydro-2′H-[2,4′]bipyridinyl-1′-yl)-2-[1-(4-methoxy-phenylsulfonyl)-pyrrolidin-2-ylmethoxy]-ethanone], for which the inhibition at 10 µM in assay [1] was 1.84%; in assay [2], 61.3%.
The matching figures for `O=C(COCC1Cc2ccccc2CN1S(=O)(=O)c1ccc(Cl)cc1Cl)N1CCC(O)(Cc2ccccc2)CC1` (centres unmarked) [Example 81, 1-(4-benzyl-4-hydroxy-piperidin-1-yl)-2-[2-(2,4-dichloro-phenylsulfonyl)-1,2,3,4-tetrahydro-isoquinolin-3-ylmethoxy]-ethanone]: 32.9% and 62.8%.
With `O=C(COCC1CCCN1S(=O)(=O)c1cc(Cl)sc1Cl)N1CCC(O)(c2cccs2)CC1` (centres unmarked) [Example 266, 2-((1-(2,5-dichlorothiophen-3-ylsulfonyl)pyrrolidin-2-yl)methoxy)-1-(4-hydroxy-4-(thiophen-2-yl)piperidin-1-yl)ethanone], the results for the inhibition at 10 µM in assay [1] and in assay [2] were 21.9% and 78.6%, respectively.
With `O=C(COCC1CCc2ccccc2N1S(=O)(=O)c1ccc(Cl)c(Cl)c1)N1CCC(O)(c2ccncc2)CC1` (centres unmarked) [Example 147, 2-((1-(3,4-dichlorophenylsulfonyl)-1,2,3,4-tetrahydroquinolin-2-yl)methoxy)-1-(4-hydroxy-4-(pyridin-4-yl)piperidin-1-yl)ethanone], the values for the inhibition at 10 µM in assay [1] and in assay [2] were 53.9% and 93.3%, respectively.
Consider `COc1cc(C)c(S(=O)(=O)N2CCCC2COCC(=O)N2CCC(O)(c3cccs3)CC2)c(C)c1` (centres unmarked) [Example 239, 1-(4-hydroxy-4-(thiophen-2-yl)piperidin-1-yl)-2-((1-(4-methoxy-2,6-dimethylphenylsulfonyl)pyrrolidin-2-yl)methoxy)ethanone], for which the results for the inhibition at 10 µM in assay [1] and in assay [2] were 105% and 98.9%, respectively.
For `O=C(COCC1CCCCN1S(=O)(=O)c1c(Cl)cccc1Cl)N1CCC(O)(c2cccs2)CC1` (centres unmarked) [Example 270, 2-((1-(2,6-dichlorophenylsulfonyl)piperidin-2-yl)methoxy)-1-(4-hydroxy-4-(thiophen-2-yl)piperidin-1-yl)ethanone] the same measures were 93.9% and 99.7%.
The matching figures for `O=C(COCC1Cc2ccccc2CN1S(=O)(=O)c1ccc(F)cc1)N1CCC(O)(Cc2ccccc2)CC1` (centres unmarked) [Example 75, 1-(4-benzyl-4-hydroxy-piperidin-1-yl)-2-[2-(4-fluoro-phenylsulfonyl)-1,2,3,4-tetrahydro-isoquinolin-3-ylmethoxy]-ethanone]: 11% and 19.2%.
For `COc1ccc(S(=O)(=O)N2Cc3ccccc3CC2COCC(=O)N2CCC(O)(c3ccccn3)CC2)cc1` (centres unmarked) [Example 50, 1-(4′-hydroxy-3′,4′,5′,6′-tetrahydro-2′H-[2,4′]bipyridinyl-1′-yl)-2-[2-(4-methoxy-phenylsulfonyl)-1,2,3,4-tetrahydro-isoquinolin-3-ylmethoxy]-ethanone] the same measures were -9.09% and 47.5%.
On to `COc1cc(C)c(S(=O)(=O)N2CCCCC2COCC(=O)N2CCC(O)(c3ccccn3)CC2)c(C)c1` (centres unmarked) [Example 138, 1-(4-hydroxy-4-(pyridin-2-yl)piperidin-1-yl)-2-((1-(4-methoxy-2,6-dimethylphenylsulfonyl)piperidin-2-yl)methoxy)ethanone], for which the inhibition at 10 µM in assay [1] stood at 102%; in assay [2], 99.6%.
The matching figures for `Cc1cc(Cl)cc(Cl)c1S(=O)(=O)N(C)CCOCC(=O)N1CCC(O)(c2ccc(Cl)cc2)CC1` [Example 104, 2,4-dichloro-N-(2-(2-(4-(4-chlorophenyl)-4-hydroxypiperidin-1-yl)-2-oxoethoxy)ethyl)-N,6-dimethylphenylsulfonamide]: 99.7% and 95.8%.
As for `O=C(COCC1CCCCN1S(=O)(=O)c1ccc(C(F)(F)F)cc1)N1CCC(O)(c2ccc(Cl)cc2)CC1` (centres unmarked) [Example 156, 1-(4-(4-chlorophenyl)-4-hydroxypiperidin-1-yl)-2-((1-(4-(trifluoromethyl)phenylsulfonyl)piperidin-2-yl)methoxy)ethanone], the inhibition at 10 µM was 20.9% in assay [1] and 70.3% in assay [2].
For `CN(CCOCC(=O)N1CCC(O)(c2cccc(C(F)(F)F)c2)CC1)S(=O)(=O)c1cc(Cl)sc1Cl` [Example 262, 2,5-dichloro-N-(2-(2-(4-hydroxy-4-(3-(trifluoromethyl)phenyl)piperidin-1-yl)-2-oxoethoxy)ethyl)-N-methylthiophene-3-sulfonamide] the same measures were 73.6% and 94.2%.
Turning to `O=C(CCC1CCCCN1S(=O)(=O)c1ccc(Cl)cc1Cl)N1CCC(O)(c2cccnc2)CC1` (centres unmarked) [Example 118, 3-(1-(2,4-dichlorophenylsulfonyl)piperidin-2-yl)-1-(4-hydroxy-4-(pyridin-3-yl)piperidin-1-yl)propan-1-one], the results for the inhibition at 10 µM in assay [1] and in assay [2] were 101% and 97.9%, respectively.
